Assay results as given in US20230257396A1, “MACROCYCLES AND THEIR USE” (BLOSSOMHILL THERAPEUTICS, INC., priority 2020, published 2023).

What was measured:
Test in all cases: KINOMEscan kinase binding assay (Eurofins/DiscoveRx), % Ctrl
kinases [1] = biological target: T1, kinases (Homo sapiens, UniProt P17948); details: 1 μM; FLT1
T1 construct: purchased Eurofins/DiscoveRx; host or cells: E. coli BL21-derived host (T7 phage display) for most kinases; HEK-293 for the rest
Outline: (§1)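 Competition binding, 1 h RT: phage-tagged or HEK-293-expressed DNA-tagged kinase + immobilized ligand + compound. Eluate kinase by qPCR. % Ctrl = (test − positive ctrl)/(negative ctrl − positive ctrl) × 100; lower means stronger binding.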

kinases [2] = biological target: T2, kinases (Homo sapiens, UniProt P00533, L858R); details: 1 μM; EGFR(L858R)
T2 construct: purchased Eurofins/DiscoveRx; host or cells: E. coli BL21-derived host (T7 phage display) for most kinases; HEK-293 for the rest
Outline: as §1

kinases [3] = biological target: T3, kinases (Homo sapiens, UniProt P00533, L858R/T790M); details: 1 μM; EGFR(L858R, T790M)
T3 construct: purchased Eurofins/DiscoveRx; host or cells: E. coli BL21-derived host (T7 phage display) for most kinases; HEK-293 for the rest
Outline: as §1

kinases [4] = biological target: T4, kinases (Homo sapiens, UniProt P07949, V804M); details: 1 μM; RET(V804M)
T4 construct: purchased Eurofins/DiscoveRx; host or cells: E. coli BL21-derived host (T7 phage display) for most kinases; HEK-293 for the rest
T4 sequence (P07949 29-1114 V804M): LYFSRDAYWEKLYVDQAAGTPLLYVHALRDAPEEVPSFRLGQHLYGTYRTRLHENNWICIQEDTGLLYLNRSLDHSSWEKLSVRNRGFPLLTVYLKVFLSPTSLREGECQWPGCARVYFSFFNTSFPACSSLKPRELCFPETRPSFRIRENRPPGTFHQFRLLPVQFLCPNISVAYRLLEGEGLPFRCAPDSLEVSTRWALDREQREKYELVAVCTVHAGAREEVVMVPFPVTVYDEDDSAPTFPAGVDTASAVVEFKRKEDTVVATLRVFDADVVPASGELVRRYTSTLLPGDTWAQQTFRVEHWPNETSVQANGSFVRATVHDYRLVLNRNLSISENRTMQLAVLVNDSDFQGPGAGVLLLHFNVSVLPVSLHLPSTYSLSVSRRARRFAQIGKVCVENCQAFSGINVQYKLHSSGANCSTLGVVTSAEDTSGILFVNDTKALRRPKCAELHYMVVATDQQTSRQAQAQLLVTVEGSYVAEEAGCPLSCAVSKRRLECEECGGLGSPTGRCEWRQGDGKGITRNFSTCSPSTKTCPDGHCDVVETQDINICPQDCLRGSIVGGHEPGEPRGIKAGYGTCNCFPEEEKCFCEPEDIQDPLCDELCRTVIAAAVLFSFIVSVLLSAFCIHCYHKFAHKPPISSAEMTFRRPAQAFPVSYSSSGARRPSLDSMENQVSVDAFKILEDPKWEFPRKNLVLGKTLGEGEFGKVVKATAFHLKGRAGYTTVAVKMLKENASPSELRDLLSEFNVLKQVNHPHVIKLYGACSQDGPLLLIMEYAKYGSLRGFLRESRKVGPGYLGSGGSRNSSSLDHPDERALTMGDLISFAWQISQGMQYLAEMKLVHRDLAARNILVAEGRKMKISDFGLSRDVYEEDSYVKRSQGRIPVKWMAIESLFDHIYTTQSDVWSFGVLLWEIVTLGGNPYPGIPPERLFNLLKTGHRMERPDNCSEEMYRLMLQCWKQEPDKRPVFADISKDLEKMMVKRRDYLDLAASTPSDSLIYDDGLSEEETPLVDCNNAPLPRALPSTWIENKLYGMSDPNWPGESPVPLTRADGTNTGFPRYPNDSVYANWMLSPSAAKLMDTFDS
Outline: as §1

kinases [5] = biological target: T5, kinases (Homo sapiens, UniProt P42684); details: 1 μM; ABL2
T5 construct: purchased Eurofins/DiscoveRx; host or cells: E. coli BL21-derived host (T7 phage display) for most kinases; HEK-293 for the rest
T5 sequence (P42684 whole entry): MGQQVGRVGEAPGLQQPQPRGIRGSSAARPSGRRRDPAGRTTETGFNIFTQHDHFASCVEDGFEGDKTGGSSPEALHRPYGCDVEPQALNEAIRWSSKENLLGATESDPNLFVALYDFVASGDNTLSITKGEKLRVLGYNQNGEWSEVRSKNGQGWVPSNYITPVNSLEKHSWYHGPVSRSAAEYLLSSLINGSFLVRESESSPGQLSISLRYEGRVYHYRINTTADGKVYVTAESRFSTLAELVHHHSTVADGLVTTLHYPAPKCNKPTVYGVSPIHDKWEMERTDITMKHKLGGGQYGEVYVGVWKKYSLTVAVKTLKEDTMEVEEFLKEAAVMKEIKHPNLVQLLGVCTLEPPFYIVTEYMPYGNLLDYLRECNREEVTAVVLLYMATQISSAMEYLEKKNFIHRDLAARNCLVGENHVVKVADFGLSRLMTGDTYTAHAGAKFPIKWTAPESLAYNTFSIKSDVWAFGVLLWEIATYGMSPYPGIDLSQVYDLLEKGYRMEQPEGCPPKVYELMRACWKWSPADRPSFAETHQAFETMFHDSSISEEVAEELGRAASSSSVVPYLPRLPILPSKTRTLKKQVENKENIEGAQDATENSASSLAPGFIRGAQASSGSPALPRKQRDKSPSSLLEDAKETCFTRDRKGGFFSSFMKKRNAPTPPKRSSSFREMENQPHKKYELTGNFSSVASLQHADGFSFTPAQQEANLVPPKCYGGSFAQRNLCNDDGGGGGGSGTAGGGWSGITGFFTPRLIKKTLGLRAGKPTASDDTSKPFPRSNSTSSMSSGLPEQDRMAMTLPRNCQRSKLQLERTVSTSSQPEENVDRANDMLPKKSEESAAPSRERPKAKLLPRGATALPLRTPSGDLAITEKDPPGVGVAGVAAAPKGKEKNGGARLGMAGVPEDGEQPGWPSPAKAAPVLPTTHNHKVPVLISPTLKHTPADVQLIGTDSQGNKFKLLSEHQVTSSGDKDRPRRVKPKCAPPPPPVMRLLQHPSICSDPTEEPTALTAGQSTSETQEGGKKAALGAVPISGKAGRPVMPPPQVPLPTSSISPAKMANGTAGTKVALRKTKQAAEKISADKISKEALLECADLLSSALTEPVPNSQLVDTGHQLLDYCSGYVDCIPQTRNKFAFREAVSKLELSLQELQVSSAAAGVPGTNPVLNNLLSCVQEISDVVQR
Outline: as §1

kinases [6] = biological target: T6, kinases (Homo sapiens, UniProt P00519); details: 1 μM
T6 construct: purchased Eurofins/DiscoveRx; host or cells: E. coli BL21-derived host (T7 phage display) for most kinases; HEK-293 for the rest
Outline: as §1

kinases [7] = biological target: T7, kinases (Homo sapiens, UniProt P00519, Y253F); details: 1 μM; ABL1(Y253F)-phosphorylated
T7 construct: purchased Eurofins/DiscoveRx; host or cells: E. coli BL21-derived host (T7 phage display) for most kinases; HEK-293 for the rest
Outline: as §1

kinases [8] = biological target: T8, kinases (Homo sapiens, UniProt P00519, T315I); details: 1 μM
T8 construct: purchased Eurofins/DiscoveRx; host or cells: E. coli BL21-derived host (T7 phage display) for most kinases; HEK-293 for the rest
Outline: as §1

kinases [9] = biological target: T9, kinases (Homo sapiens, UniProt P10721, D816V); details: 1 μM; KIT(D816V)
T9 construct: purchased Eurofins/DiscoveRx; host or cells: E. coli BL21-derived host (T7 phage display) for most kinases; HEK-293 for the rest
T9 sequence (P10721 26-976 D816V): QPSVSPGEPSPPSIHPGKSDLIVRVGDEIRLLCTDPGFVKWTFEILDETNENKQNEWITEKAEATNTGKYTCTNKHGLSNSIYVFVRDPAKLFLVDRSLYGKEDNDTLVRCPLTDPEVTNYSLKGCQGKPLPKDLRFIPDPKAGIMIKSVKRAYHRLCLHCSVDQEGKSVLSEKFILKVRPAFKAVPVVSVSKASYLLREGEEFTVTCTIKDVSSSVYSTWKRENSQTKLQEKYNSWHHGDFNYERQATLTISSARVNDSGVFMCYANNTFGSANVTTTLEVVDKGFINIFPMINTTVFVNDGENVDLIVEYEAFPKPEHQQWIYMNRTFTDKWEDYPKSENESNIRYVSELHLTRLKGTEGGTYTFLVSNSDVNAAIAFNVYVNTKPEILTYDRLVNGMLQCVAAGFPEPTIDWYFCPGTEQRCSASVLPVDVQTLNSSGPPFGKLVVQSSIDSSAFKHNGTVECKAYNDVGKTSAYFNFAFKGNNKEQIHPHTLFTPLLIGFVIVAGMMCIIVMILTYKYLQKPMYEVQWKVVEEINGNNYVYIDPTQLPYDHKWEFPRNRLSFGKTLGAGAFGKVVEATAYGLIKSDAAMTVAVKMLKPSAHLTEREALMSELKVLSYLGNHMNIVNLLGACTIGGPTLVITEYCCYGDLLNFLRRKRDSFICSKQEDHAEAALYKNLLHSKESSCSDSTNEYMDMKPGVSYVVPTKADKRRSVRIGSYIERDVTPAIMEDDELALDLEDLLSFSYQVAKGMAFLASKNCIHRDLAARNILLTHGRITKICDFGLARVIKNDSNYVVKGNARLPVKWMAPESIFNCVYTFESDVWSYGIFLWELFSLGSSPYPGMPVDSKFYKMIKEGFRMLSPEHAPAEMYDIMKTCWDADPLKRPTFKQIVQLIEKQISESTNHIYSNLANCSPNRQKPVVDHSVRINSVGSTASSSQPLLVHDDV
Outline: as §1

kinases [10] = biological target: T10, kinases (Homo sapiens, UniProt P00519, Q252H); details: 1 μM
T10 construct: purchased Eurofins/DiscoveRx; host or cells: E. coli BL21-derived host (T7 phage display) for most kinases; HEK-293 for the rest
Outline: as §1

kinases [11] = biological target: T11, kinases (Homo sapiens, UniProt P00519, E255K); details: 1 μM; ABL1(E255K)-phosphorylated
T11 construct: purchased Eurofins/DiscoveRx; host or cells: E. coli BL21-derived host (T7 phage display) for most kinases; HEK-293 for the rest
Outline: as §1

kinases [12] = biological target: T12, kinases (Homo sapiens, UniProt P10721, V559D); details: 1 μM; KIT(V559D)
T12 construct: purchased Eurofins/DiscoveRx; host or cells: E. coli BL21-derived host (T7 phage display) for most kinases; HEK-293 for the rest
T12 sequence (P10721 26-976 V559D): as the sequence (P10721 26-976 D816V) above, with V534D, V791D counted along it
Outline: as §1

kinases [13] = biological target: T13, kinases (Homo sapiens, UniProt P36888, D835Y); details: 1 μM; FLT3(D835Y)
T13 construct: purchased Eurofins/DiscoveRx; host or cells: E. coli BL21-derived host (T7 phage display) for most kinases; HEK-293 for the rest
T13 sequence (P36888 27-993 D835Y): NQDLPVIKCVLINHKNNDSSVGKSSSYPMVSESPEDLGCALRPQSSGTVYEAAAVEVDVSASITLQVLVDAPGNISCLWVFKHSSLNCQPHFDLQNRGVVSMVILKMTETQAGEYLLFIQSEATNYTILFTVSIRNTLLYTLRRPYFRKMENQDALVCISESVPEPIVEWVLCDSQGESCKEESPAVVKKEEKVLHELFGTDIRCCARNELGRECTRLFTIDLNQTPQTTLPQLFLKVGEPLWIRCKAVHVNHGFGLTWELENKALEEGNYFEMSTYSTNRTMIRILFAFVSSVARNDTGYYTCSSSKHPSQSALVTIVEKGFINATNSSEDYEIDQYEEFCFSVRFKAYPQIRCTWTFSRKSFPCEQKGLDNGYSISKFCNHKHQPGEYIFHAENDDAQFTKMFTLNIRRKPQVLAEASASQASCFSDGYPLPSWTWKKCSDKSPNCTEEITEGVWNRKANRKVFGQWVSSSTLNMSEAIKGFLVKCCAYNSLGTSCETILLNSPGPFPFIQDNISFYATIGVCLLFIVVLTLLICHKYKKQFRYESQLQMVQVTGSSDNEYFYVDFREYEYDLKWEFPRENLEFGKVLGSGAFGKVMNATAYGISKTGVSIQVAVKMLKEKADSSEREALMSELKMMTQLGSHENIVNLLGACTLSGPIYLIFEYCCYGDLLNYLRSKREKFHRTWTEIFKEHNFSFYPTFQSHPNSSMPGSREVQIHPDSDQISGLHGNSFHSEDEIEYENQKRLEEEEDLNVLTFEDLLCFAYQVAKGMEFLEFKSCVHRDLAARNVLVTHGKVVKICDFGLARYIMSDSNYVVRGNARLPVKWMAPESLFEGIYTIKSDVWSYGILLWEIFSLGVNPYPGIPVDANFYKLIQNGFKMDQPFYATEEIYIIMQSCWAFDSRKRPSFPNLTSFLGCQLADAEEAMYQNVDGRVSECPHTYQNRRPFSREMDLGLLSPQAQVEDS
Outline: as §1

kinases [14] = biological target: T14, kinases (Homo sapiens, UniProt P10721, T670I/V559D); details: 1 μM; KIT(V559D, T670I)
T14 construct: purchased Eurofins/DiscoveRx; host or cells: E. coli BL21-derived host (T7 phage display) for most kinases; HEK-293 for the rest
T14 sequence (P10721 26-976 V559D/T670I): as the sequence (P10721 26-976 D816V) above, with V534D, T645I, V791D counted along it
Outline: as §1

kinases [15] = biological target: T15, kinases (Homo sapiens, UniProt P35916); details: 1 μM; FLT4
T15 construct: purchased Eurofins/DiscoveRx; host or cells: E. coli BL21-derived host (T7 phage display) for most kinases; HEK-293 for the rest
T15 sequence (P35916 25-1363): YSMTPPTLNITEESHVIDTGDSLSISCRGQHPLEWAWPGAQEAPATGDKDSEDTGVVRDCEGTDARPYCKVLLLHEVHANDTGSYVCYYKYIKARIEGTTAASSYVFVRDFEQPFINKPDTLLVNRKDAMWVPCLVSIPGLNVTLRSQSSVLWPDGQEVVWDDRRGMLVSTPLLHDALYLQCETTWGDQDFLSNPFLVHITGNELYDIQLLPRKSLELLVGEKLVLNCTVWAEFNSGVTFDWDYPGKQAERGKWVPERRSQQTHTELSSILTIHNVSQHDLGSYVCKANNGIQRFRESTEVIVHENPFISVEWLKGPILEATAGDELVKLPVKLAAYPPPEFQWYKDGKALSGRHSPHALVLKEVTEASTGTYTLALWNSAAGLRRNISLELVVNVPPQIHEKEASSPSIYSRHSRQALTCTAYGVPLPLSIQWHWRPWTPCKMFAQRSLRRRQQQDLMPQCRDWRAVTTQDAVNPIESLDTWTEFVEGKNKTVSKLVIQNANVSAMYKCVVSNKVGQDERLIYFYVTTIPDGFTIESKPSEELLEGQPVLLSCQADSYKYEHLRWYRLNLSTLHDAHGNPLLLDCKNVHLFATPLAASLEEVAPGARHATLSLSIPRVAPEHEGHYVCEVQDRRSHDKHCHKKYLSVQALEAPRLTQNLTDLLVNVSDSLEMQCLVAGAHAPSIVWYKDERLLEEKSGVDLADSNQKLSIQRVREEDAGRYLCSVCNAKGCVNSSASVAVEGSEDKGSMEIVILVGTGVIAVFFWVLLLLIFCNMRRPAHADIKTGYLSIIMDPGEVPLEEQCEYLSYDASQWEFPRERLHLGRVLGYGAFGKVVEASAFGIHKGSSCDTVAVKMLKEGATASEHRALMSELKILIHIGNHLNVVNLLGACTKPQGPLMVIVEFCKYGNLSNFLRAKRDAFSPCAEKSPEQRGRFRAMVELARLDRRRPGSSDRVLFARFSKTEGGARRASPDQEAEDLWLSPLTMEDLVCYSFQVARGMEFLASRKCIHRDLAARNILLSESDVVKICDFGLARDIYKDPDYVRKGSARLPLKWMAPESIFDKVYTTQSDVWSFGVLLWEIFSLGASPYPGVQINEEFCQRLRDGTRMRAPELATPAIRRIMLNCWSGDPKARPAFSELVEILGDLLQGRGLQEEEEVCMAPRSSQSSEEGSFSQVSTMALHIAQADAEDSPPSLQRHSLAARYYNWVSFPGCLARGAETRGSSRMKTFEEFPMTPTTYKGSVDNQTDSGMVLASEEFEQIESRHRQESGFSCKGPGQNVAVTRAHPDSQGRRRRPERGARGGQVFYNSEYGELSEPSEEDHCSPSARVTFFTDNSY
Outline: as §1

% Ctrl, FLT1 (kinases [1]) | % Ctrl, EGFR(L858R) (kinases [2]) | % Ctrl, EGFR(L858R, T790M) (kinases [3]) | % Ctrl, RET(V804M) (kinases [4]) | % Ctrl, ABL2 (kinases [5]) | % Ctrl, ABL1-nonphosphorylated (kinases [6]) | % Ctrl, ABL1-phosphorylated (kinases [6]) | % Ctrl, ABL1(Y253F)-phosphorylated (kinases [7]) | % Ctrl, ABL1(T315I)-nonphosphorylated (kinases [8]) | % Ctrl, ABL1(T315I)-phosphorylated (kinases [8]) | % Ctrl, KIT(D816V) (kinases [9]) | % Ctrl, ABL1(Q252H)-nonphosphorylated (kinases [10]) | % Ctrl, ABL1(Q252H)-phosphorylated (kinases [10]) | % Ctrl, ABL1(E255K)-phosphorylated (kinases [11]) | % Ctrl, KIT(V559D) (kinases [12]) | % Ctrl, FLT3(D835Y) (kinases [13]) | % Ctrl, KIT(V559D, T670I) (kinases [14]) | % Ctrl, FLT4 (kinases [15]) | Structure (SMILES)
11 % Ctrl | 48 % Ctrl | 1.2 % Ctrl | 0 % Ctrl | 2.2 % Ctrl | 0 % Ctrl | 0 % Ctrl | 0 % Ctrl | 0 % Ctrl | 0.1 % Ctrl | 0.5 % Ctrl | 0 % Ctrl | 0.05 % Ctrl | 0.05 % Ctrl | 35 % Ctrl | 0 % Ctrl | 27 % Ctrl | 0.11 % Ctrl | Cc1cc2c([nH]1)/C=C1\C(=O)Nc3ccc(cc31)-c1cnn(C)c1CNCCN(C)C2=O [Ex. 125, [3a(4)Z]-6,9,14-trimethyl-9,10,11,12,13,14-hexahydro-1,17-(ethanediylidene)pyrazolo[4,3-m]dipyrrolo[3,2-f:3′,4′-i][1,4]diazacyclopentadecine-3,8(2H,5H)-dione]
0.65 % Ctrl | 31 % Ctrl | 0.15 % Ctrl | 0 % Ctrl | 0.9 % Ctrl | 0 % Ctrl | 0.1 % Ctrl | 0.25 % Ctrl | 0 % Ctrl | 0 % Ctrl | 0.3 % Ctrl | 1.7 % Ctrl | 0.75 % Ctrl | 0.55 % Ctrl | 1.4 % Ctrl | 1.4 % Ctrl | 3.6 % Ctrl | 0 % Ctrl | Cc1cc2c([nH]1)/C=C1\C(=O)Nc3ccc(cc31)-c1cnn(C)c1CN(C)CCN(C)C2=O [Ex. 126, [3a(4)Z]-6,9,12,14-tetramethyl-9,10,11,12,13,14-hexahydro-1,17-(ethanediylidene)pyrazolo[4,3-m]dipyrrolo[3,2-f:3′,4′-i][1,4]diazacyclopentadecine-3,8(2H,5H)-dione]
54 % Ctrl | 47 % Ctrl | 2.3 % Ctrl | 1.6 % Ctrl | 6.9 % Ctrl | 0.05 % Ctrl | 0 % Ctrl | 0 % Ctrl | 0 % Ctrl | 0.65 % Ctrl | 48 % Ctrl | 0 % Ctrl | 0.05 % Ctrl | 0.1 % Ctrl | 82 % Ctrl | 1.4 % Ctrl | 62 % Ctrl | 2.1 % Ctrl | Cc1cc2c([nH]1)/C=C1\C(=O)Nc3ccc(cc31)-c1c(C)n[nH]c1CNCCN(C)C2=O [Ex. 127, [3a(4)Z]-6,9,16-trimethyl-9,10,11,12,13,14-hexahydro-1,17-(ethanediylidene)pyrazolo[4,3-m]dipyrrolo[3,2-f:3′,4′-i][1,4]diazacyclopentadecine-3,8(2H,5H)-dione]
85 % Ctrl | 88 % Ctrl | 48 % Ctrl | 55 % Ctrl | 91 % Ctrl | 60 % Ctrl | 51 % Ctrl | 49 % Ctrl | 20 % Ctrl | 4.2 % Ctrl | 84 % Ctrl | 57 % Ctrl | 42 % Ctrl | 25 % Ctrl | 93 % Ctrl | 22 % Ctrl | 71 % Ctrl | 45 % Ctrl | Cc1cc2c([nH]1)/C=C1\C(=O)Nc3ccc(cc31)-c1c(noc1C)COCCN(C)C2=O [Ex. 128, [3a(4)Z]-6,9,16-trimethyl-1,11-dihydro-2H,13H-1,17-(ethanediylidene)[1,4]oxazolo[4,3-m]dipyrrolo[3,2-f:3′,4′-i][1,4]oxazacyclopentadecine-3,8(5H,9H)-dione]
99 % Ctrl | 100 % Ctrl | 98 % Ctrl | 94 % Ctrl | 96 % Ctrl | 84 % Ctrl | 91 % Ctrl | 98 % Ctrl | 92 % Ctrl | 91 % Ctrl | 93 % Ctrl | 87 % Ctrl | 86 % Ctrl | 89 % Ctrl | 98 % Ctrl | 9.1 % Ctrl | 100 % Ctrl | 83 % Ctrl | Cc1cc2c([nH]1)/C=C1\C(=O)Nc3ccc(cc31)OCCOCCNC2=O [Ex. 129, [16a(17)Z]-2-methyl-6,7,9,10-tetrahydro-1H-12,14-(ethanediylidene)dipyrrolo[3,2-i:3′,4′-l][1,4,7]dioxazacyclopentadecine-4,16(5H,15H)-dione]
4 % Ctrl | 56 % Ctrl | 35 % Ctrl | 0.15 % Ctrl | 1.8 % Ctrl | 0 % Ctrl | 0 % Ctrl | 0 % Ctrl | 0 % Ctrl | 1.1 % Ctrl | 1.2 % Ctrl | 0 % Ctrl | 0.2 % Ctrl | 0 % Ctrl | 0.15 % Ctrl | 2.3 % Ctrl | 0.05 % Ctrl | 0 % Ctrl | Cc1cc2c([nH]1)/C=C1\C(=O)Nc3cc(Cl)c(cc31)OCCOCCN(C)C2=O [Ex. 131, [16a(17)Z]-19-chloro-2,5-dimethyl-6,7,9,10-tetrahydro-1H-12,14-(ethanediylidene)dipyrrolo[3,2-i:3′,4′-l][1,4,7]dioxazacyclopentadecine-4,16(5H,15H)-dione]
